# Measurements from PMC11083148, “Structure–Activity Relationship Studies on Highly Functionalized Pyrazole Hydrazones and Amides as Antiproliferative and Antioxidant Agents” (International Journal of Molecular Sciences, 2024).
# Legend:
# washed platelets [1] = assay: ROS assay in platelets (DCFH-DA, thrombin-stimulated); type: cell-based, human; conditions: Homo sapiens, Platelet, 0.1 U/mL thrombin, mean ± SD, read-out: IC50 ROS production inhibition
# Protocol: (§1) The antioxidant properties of acylhydrazones 10–13 and pyrazolyl amides 14–22 were tested by evaluating their inhibition of platelet aggregation and ROS production (Figure 3, Table S1). In fact, human platelets could represent a fast and low-cost biological model to screen compounds as anticancer, anti-inflammatory, and antiaggregating agents. Moreover, ROS production inhibition, related to human platelet aggregation, could provide a good indication of the anti-inflammatory and antioxidant properties of the newly synthesized compounds [47, 50, 51, 52]. N-acetylcysteine (NAC) and acetyl salicylic acid (ASA) were used as reference drugs for antioxidant and antiaggregant activities, respectively.
# (§2) Freshly drawn venous blood from healthy volunteers from “Centro Trasfusionale” (IRCCS Policlinico San Martino, Genoa, Italy) was collected into a 130 mM aqueous trisodium citrate anticoagulant solution (9:1). The donors claimed to not have taken drugs known to interfere with platelet function during the two weeks prior to blood collection and gave their informed consent. Whole blood was centrifuged at 100× g for 20 min to afford platelet-rich plasma that was then spun at 1100× g for 15 min. The obtained pellet was washed once with a pH 5.2 ACD solution (75 mM trisodium citrate, 42 mM citric acid, and 136 mM glucose), centrifuged at 1100× g for 15 min, and then re-suspended in pH 7.4 Hepes buffer (145 mM NaCl, 5 mM KCl, 1 mM MgSO4, 10 mM glucose, and 10 mM HEPES).
# 2′,7′-Dichlorofluorescein diacetate (DCFH-DA) and thrombin were purchased from Sigma-Aldrich/Merck Millipore. DMSO solutions of 10–22 were diluted in saline immediately before each experiment. ROS production was quantified by DCFH-DA, a ROS-sensitive probe that yields, upon oxidation, the fluorescent adduct DCF that is trapped inside the cells. Briefly, washed platelets (1.0 × 10^8/mL), pre-incubated with saline solutions of 10–22 for 15 min at 37 °C, were stimulated by 0.1 U/mL thrombin. Incubation was stopped by cooling samples in an ice bath, and then samples were immediately analyzed in a Merck Millipore Bioscience Guava easyCyte flow cytometer (Merk Millipore, Burlington, MA, USA). The reported IC50 values represent the molar concentration of the compounds able to inhibit 50% of the maximal aggregation induced by the agonist and are calculated as the percentage inhibition of the maximal aggregation measured in the presence of the agent compared with the measure in a control sample containing saline, carried out under the same conditions. The IC50 values were extrapolated from nonlinear regression analysis of concentration–response curves (three points) using MS Excel software (Microsoft 365 suite). Each IC50 value is the mean of six independent experiments.
# washed platelets [2] = assay: Platelet aggregation (thrombin-induced, Born's method); type: cell-based; conditions: Homo sapiens, 0.1 U/mL thrombin, mean ± SD, read-out: IC50 Aggregation inhibition
# Protocol: as §1, §2
# Thrombin was purchased from Sigma-Aldrich/Merck Millipore. A DMSO solution of compounds 10–22 was diluted in saline immediately before each experiment and added to the washed platelets (3.0 × 10^8/mL) at 37 °C. After 3 min, 0.1 U/mL thrombin was added, and platelet aggregation was quantified according to Born’s method using a Bio-Data Aggregometer (Bio-Data Corporation, Horsham, PA, USA). The IC50 values were calculated as detailed above.
# MDA-MB231 = assay: MTT assay, antiproliferative activity; type: cell-based; conditions: Homo sapiens, MDA-MB-231, 48h
# Protocol: (§3) Pyrazole acylhydrazones 10–13 and amides 14–22 were tested by MTT assay to evaluate their antiproliferative and cytotoxicity properties against a panel of eight tumor cell lines and normal fibroblasts.
# (§4) All reagents were purchased from EuroClone, Milan, Italy). The following cell lines were used for MTT assays: SKOV-3 (ovarian adenocarcinoma, ATCC, Manassas, VA, USA); MCF-7 (breast adenocarcinoma, Biologic Bank and Cell Factory, IRCCS Policlinico San Martino, Genoa, Italy); Hep-G2 (hepatocellular carcinoma, ATCC, Manassas, VA, USA); SK-MEL28 (skin melanoma, Biologic Bank and Cell Factory, IRCCS Policlinico San Martino, Genoa, Italy), GM-6114 (embryonic human fibroblast, ATCC, Manassas, VA, USA); MDA-MB231 (breast adenocarcinoma, Biologic Bank and Cell Factory, IRCCS Policlinico San Martino, Genoa, Italy); HeLa (cervical adenocarcinoma, Biologic Bank and Cell Factory, IRCCS Policlinico San Martino, Genoa, Italy); SK-BR3 (breast andenocarcinoma, Biologic Bank and Cell Factory, IRCCS Policlinico San Martino, Genoa, Italy); A549 (lung carcinoma, Biologic Bank and Cell Factory, IRCCS Policlinico San Martino, Genoa, Italy); HUVEC (Human Umbilical Vein Endothelial Cells, ATCC, Manassas, VA, USA). All cell lines were grown in their medium with 10% FBS, 2 mM Glutamine, and 1% penstrep and incubated at 37 °C in 5% CO2 in a humidified environment. The cell lines were plated in 96-well plates at an adequate number to reach 80–90% confluence at the end of the assay. 16 h after cell plating, a 10 mM DMSO stock solution of the compounds was diluted in growth medium and added at a final working concentration of 10 μM. After 48h of incubation, a 2 mg/mL PBS solution of MTT (3-(4,5-dimethyl-2-thiazolyl)-2,5-diphenyl-2H-tetrazolium bromide) was added (30 μL/well). After 4h, the supernatant was removed, and the Formazan precipitates were dissolved in DMSO (100 μL/well). The 96-well plates were incubated for 20 min, and absorbance was measured at 570 nm using a plate reader. The results are expressed as a percentage ratio over control samples (100%) in which the cells were incubated with the same amount of DMSO but without compounds. Each value is the mean of three independent experiments run in six replicates.
# A549 = assay: MTT assay, antiproliferative activity; type: cell-based; conditions: Homo sapiens, 48h, read-out: Mean Growth Percentage
# Protocol: as §3, §4
# SK-BR3 = assay: MTT assay, antiproliferative activity; type: cell-based; conditions: Homo sapiens, SK-BR-3, 48h
# Protocol: as §3, §4
# Hep-G2 = assay: MTT assay, antiproliferative activity; type: cell-based; conditions: Homo sapiens, HepG2, 48h
# Protocol: as §3, §4
# GM-6114 = assay: MTT assay, cytotoxicity on normal fibroblasts; type: cell-based; conditions: human, 48 h, 10 µM
# HeLa = assay: MTT assay, antiproliferative activity; type: cell-based; conditions: Homo sapiens, 10 µM, 48h, read-out: Mean Growth Percentage
# Protocol: as §3, §4
# (§5) Each IC50 value is the mean of three independent experiments run in duplicate.
# SKOV3 = assay: MTT assay, antiproliferative activity; type: cell-based; conditions: Homo sapiens, SK-OV-3, 10 µM, 48h
# Protocol: as §3, §4, §5
# SKMEL28 = assay: MTT assay, antiproliferative activity; type: cell-based; conditions: Homo sapiens, SK-MEL-28, 10 µM, 48h
# Protocol: as §3, §4, §5
# MCF7 = assay: MTT assay, antiproliferative activity; type: cell-based; conditions: Homo sapiens, 10 µM, 48h
# Protocol: as §3, §4, §5
smiles,measurement,setting,value
"CCOC(=O)c1c(NC(=O)c2ccc(OC)cc2)nn(C)c1Nc1ccccc1 [compound 19, Ethyl 3-(4-Methoxybenzamido)-1-methyl-5-(phenylamino)-1H-pyrazole-4-carboxylate]",IC50,washed platelets [1],293 ± 18 µM
same,IC50,washed platelets [2],294 ± 26 µM
same,Mean growth percentage at 10 µM,MDA-MB231,136%
same,activity at 10 µM,A549,92.9%
same,Mean growth percentage at 10 µM,SK-BR3,103%
same,Mean growth percentage at 10 µM,Hep-G2,105%
same,melting point,,143 to 145 °C
same,Mean Growth Percentage,GM-6114,66.69%
same,activity at 10 µM,HeLa,124%
same,Mean growth percentage at 10 µM,SKOV3,97.3%
same,Mean growth percentage at 10 µM,SKMEL28,85.2%
same,mean growth percentage (cell growth remaining vs control) at 10 µM,MCF7,95.2%
"COc1ccc(/C=N/NC(=O)c2c(Nc3ccccc3)nn(CC(O)c3ccccc3)c2N)cc1Oc1ccccc1 (stereo not drawn) [13c, (E)-5-amino-1-(2-hydroxy-2-phenylethyl)-N′-(4-methoxy-3-phenoxybenzylidene)-3-(phenylamino)-1H-pyrazole-4-carbohydrazide]",IC50,washed platelets [1],209 ± 15 µM
same,IC50,washed platelets [2],313 ± 29 µM
same,Mean growth percentage at 10 µM,MDA-MB231,104%
same,activity at 10 µM,A549,94.4%
same,Mean growth percentage at 10 µM,SK-BR3,87.5%
same,Mean growth percentage at 10 µM,Hep-G2,125%
same,melting point,,144 to 145 °C
same,Mean Growth Percentage,GM-6114,99.14%
same,activity at 10 µM,HeLa,97.9%
same,Mean growth percentage at 10 µM,SKOV3,129%
same,Mean growth percentage at 10 µM,SKMEL28,104%
same,mean growth percentage (cell growth remaining vs control) at 10 µM,MCF7,99.8%
"CCOC(=O)c1c(NC(=O)c2c(OC)cccc2OC)nn(C)c1Nc1ccccc1 [compound 20, Ethyl 3-(2,6-dimethoxybenzamido)-1-methyl-5-(phenylamino)-1H-pyrazole-4-carboxylate]",IC50,washed platelets [1],289 ± 27 µM
same,IC50,washed platelets [2],301 ± 24 µM
same,Mean growth percentage at 10 µM,MDA-MB231,124%
same,activity at 10 µM,A549,70.8%
same,Mean growth percentage at 10 µM,SK-BR3,106%
same,Mean growth percentage at 10 µM,Hep-G2,108%
same,melting point,,158 to 160 °C
same,Mean Growth Percentage,GM-6114,64.71%
same,activity at 10 µM,HeLa,111%
same,Mean growth percentage at 10 µM,SKOV3,84.4%
same,Mean growth percentage at 10 µM,SKMEL28,83.6%
same,mean growth percentage (cell growth remaining vs control) at 10 µM,MCF7,92.1%
"COc1ccc(/C=N/NC(=O)c2c(N)n[nH]c2Nc2ccccc2)cc1 [10a, (E)-3-amino-N′-(4-methoxybenzylidene)-5-(phenylamino)-1H-pyrazole-4-carbohydrazide]",IC50,washed platelets [1],111 ± 9 µM
same,IC50,washed platelets [2],204 ± 12 µM
same,Mean growth percentage at 10 µM,MDA-MB231,99.1%
same,activity at 10 µM,A549,103%
same,Mean growth percentage at 10 µM,SK-BR3,95.5%
same,Mean growth percentage at 10 µM,Hep-G2,115%
same,melting point,,227 to 232 °C
same,Mean Growth Percentage,GM-6114,110.40%
same,activity at 10 µM,HeLa,98.4%
same,Mean growth percentage at 10 µM,SKOV3,104%
same,Mean growth percentage at 10 µM,SKMEL28,86.7%
same,mean growth percentage (cell growth remaining vs control) at 10 µM,MCF7,95.1%
"CCOC(=O)c1c(NC(=O)c2ccc(OC)c(OC)c2)n[nH]c1Nc1ccccc1 [compound 16, Ethyl 3-(3,4-dimethoxybenzamido)-5-(phenylamino)-1H-pyrazole-4-carboxylate]",IC50,washed platelets [1],310 ± 24 µM
same,IC50,washed platelets [2],292 ± 28 µM
same,Mean growth percentage at 10 µM,MDA-MB231,96%
same,activity at 10 µM,A549,52.6%
same,Mean growth percentage at 10 µM,SK-BR3,82.5%
same,Mean growth percentage at 10 µM,Hep-G2,49.1%
same,melting point,,143 to 145 °C
same,Mean Growth Percentage,GM-6114,53.68%
same,activity at 10 µM,HeLa,57.6%
same,Mean growth percentage at 10 µM,SKOV3,66.9%
same,Mean growth percentage at 10 µM,SKMEL28,54%
same,mean growth percentage (cell growth remaining vs control) at 10 µM,MCF7,62.4%
"CCOC(=O)c1c(NC(=O)c2ccc(OC)cc2)n[nH]c1Nc1ccccc1 [compound 15, Ethyl 3-(4-methoxybenzamido)-5-(phenylamino)-1H-pyrazole-4-carboxylate]",IC50,washed platelets [1],323 ± 14 µM
same,IC50,washed platelets [2],250 ± 19 µM
same,Mean growth percentage at 10 µM,MDA-MB231,130%
same,activity at 10 µM,A549,67.9%
same,Mean growth percentage at 10 µM,SK-BR3,99.8%
same,Mean growth percentage at 10 µM,Hep-G2,85.5%
same,melting point,,155 to 157 °C
same,Mean Growth Percentage,GM-6114,68.40%
same,activity at 10 µM,HeLa,105%
same,Mean growth percentage at 10 µM,SKOV3,88.4%
same,Mean growth percentage at 10 µM,SKMEL28,71.7%
same,mean growth percentage (cell growth remaining vs control) at 10 µM,MCF7,65.9%
"CCOC(=O)c1c(NC(=O)c2ccc(OC)c(OC)c2)nn(C)c1Nc1ccccc1 [compound 21, Ethyl 3-(3,4-dimethoxybenzamido)-1-methyl-5-(phenylamino)-1H-pyrazole-4-carboxylate]",IC50,washed platelets [1],262 ± 13 µM
same,IC50,washed platelets [2],278 ± 27 µM
same,Mean growth percentage at 10 µM,MDA-MB231,149%
same,activity at 10 µM,A549,112%
same,Mean growth percentage at 10 µM,SK-BR3,107%
same,Mean growth percentage at 10 µM,Hep-G2,97.9%
same,melting point,,186 to 187 °C
same,Mean Growth Percentage,GM-6114,85.88%
same,activity at 10 µM,HeLa,108%
same,Mean growth percentage at 10 µM,SKOV3,90.2%
same,Mean growth percentage at 10 µM,SKMEL28,84.6%
same,mean growth percentage (cell growth remaining vs control) at 10 µM,MCF7,90.3%
"COc1ccc(/C=N/NC(=O)c2c(Nc3ccccc3)nn(C)c2N)cc1OC [12b, (E)-5-amino-N′-(3,4-dimethoxybenzylidene)-1-methyl-3-(phenylamino)-1H-pyrazole-4-carbohydrazide]",IC50,washed platelets [1],106 ± 9 µM
same,IC50,washed platelets [2],187 ± 16 µM
same,Mean growth percentage at 10 µM,MDA-MB231,91.7%
same,activity at 10 µM,A549,95.3%
same,Mean growth percentage at 10 µM,SK-BR3,94.2%
same,Mean growth percentage at 10 µM,Hep-G2,92.7%
same,melting point,,104 to 106 °C
same,Mean Growth Percentage,GM-6114,99.78%
same,activity at 10 µM,HeLa,92.8%
same,Mean growth percentage at 10 µM,SKOV3,98.6%
same,Mean growth percentage at 10 µM,SKMEL28,73.3%
same,mean growth percentage (cell growth remaining vs control) at 10 µM,MCF7,101%
